Common to all, as to format: cell-based
For one assay, the system named is cultured parietal cells. Briefly: Gastric acid secretion assay (histamine-stimulated VAC formation). The procedure:
Acid secretion was measured in cultured parietal cells upon histamine stimulation. Briefly, after mucosal digestion of isolated glands, supernatants were pelleted by centrifugation at 200×g, washed three times with HEPES-MEM, and re-suspended in Medium A. Approximately 70% of the total gastric cells suspended in Medium A were parietal cells. The cells were plated onto Matrigel-coated 18-mm round coverslips or 35-mm dishes and incubated at 37° C. In cultured parietal cells, upon secretagogue stimulation, apical canalicular membranes are engulfed into the cell to form multiple actin-wrapped vacuoles known as vacuolar apical compartments (VACs), which remain separate from the basolateral membrane and free TVs in the cytosol (Nakada, S. L., Crothers, J. M., Jr., Machen, T. E., and Forte, J. G. (2012). Apical vacuole formation by gastric parietal cells in primary culture: effect of low extracellular Ca2+. American journal of physiology Cell physiology 303, C1301-1311.). […] In resting WT cells, small (diameter <2 μm) VACs were observed occasionally with a total surface area <10 μm^2. VACs formed within 10-20 min after bath application of histamine and then fused together to generate one or a few large VACs (up to 8 μm in diameter; total VAC surface area >50 μm^2). The apical membrane vacuole surface area during resting and stimulated states was measured for all VACs that were visible in multiple (3-6) Z-cross sections. Data were analyzed in ImageJ (NIH).
In this acid secretion assay, histamine-stimulated VAC formation was abolished by ML-S4 at 10 μM (Zhang X, Cheng X, Yu L, Yang J, Calvo R, Patnaik S, Hu X, Gao Q, Yang M, Lawas M, Delling M, Marugan J, Ferrer M, and Xu H. 2016, PMID: 27357649).

A further assay concerns the target T1, ML1 channel (Homo sapiens, UniProt Q9GZU1).
T1 construct: host or cells: unnamed cells treated with vacuolin-1; isolated enlarged endolysosomes
Briefly: Endolysosomal electrophysiology (whole-endolysosome patch-clamp). The procedure:
Endolysosomal electrophysiology was performed in isolated endolysosomes using a modified patch-clamp method. Briefly, cells were treated with 1 μM vacuolin-1 for 2-5 h to increase the size of endosomes and lysosomes. Whole-endolysosome recordings were performed on isolated enlarged LELs. The bath (internal/cytoplasmic) solution contained 140 mM K-gluconate, 4 mM NaCl, 1 mM EGTA, 2 mM Na2-ATP, 2 mM MgCl2, 0.39 mM CaCl2), 0.2 mM GTP and 10 mM HEPES (pH adjusted with KOH to 7.2; free [Ca^2+]i˜100 nM based on the Maxchelator software (http://maxchelator.stanford.edu/)). The pipette (luminal) solution consisted of a ‘Low pH Tyrode's solution with 145 mM NaCl, 5 mM KCl, 2 mM CaCl2), 1 mM MgCl2, 10 mM HEPES, 10 mM MES and 10 mM glucose (pH 4.6). All bath solutions were applied via a perfusion system to achieve a complete solution exchange within a few seconds. Data were collected using an Axopatch 2A patch clamp amplifier, Digidata 1440 and pClamp 10.0 software (Axon Instruments). Whole-cell currents were digitized at 10 kHz and filtered at 2 kHz. All experiments were conducted at room temperature (21-23° C.), and all recordings were analyzed with pClamp 10.0 and Origin 8.0 (OriginLab, Northampton, Mass., USA). ML1 channel activity was induced by synthetic agonists ML-SA1 or […], and inhibited by ML-S13 or ML-S14.
In this electrophysiology assays, compounds were tested with both basal and agonist-induced ML1 currents. Examples B11, B11a, B11b, B40, B41, B44, B5, B47, B48, B49, B50, B51, B54, B57, B58, B59, B62, B63, B68, B69, B71, B72, B75, B75, and B76 were tested with basal ML1 currents. […] In particular, Examples B11, B11a and B11b inhibited basal ML1 currents with IC50<100 nM. Examples B11, B11a and B11b are shown below. Examples B1-4, B2-1, B-2-2, B2-3, B2-4, 3-4, B5, B6-2, B9-4, B-10, B-10-4, B11, B12, B13, B14, B15, B16, B18, B19, B20, B21, B22, B23, B25, B26, B27, B28, B29, B30, B32, B34, B40, B41, B44, B45, B46, B47, B48, B49, B50, B51, B52, B59, and B66 were tested in ML1 currents activated by ML1 agonists (ML-SA1 or ML-SA5). […] In particular, B11 inhibited the ML-SA1-activated currents with IC50<1,000 nM. Example B11 is shown below.
For orientation: Patch clamp records ionic current or voltage across a cell membrane.

The target of the next assay is T2, ML1 (UniProt Q99J21).
T2 construct: fused on or other part: GCaMP3 (genetically encoded Ca2+ indicator) fused to ML1 as the reporter handle; in the published construct it sits at the N-terminus
Briefly: Lysosomal Ca2+ imaging in Tet-On HEK-GCaMP3-ML1 cells. Conditions: zero Ca2+ solution, ML-SA1 trigger, read-out: inhibition of ML-SA1-induced lysosomal Ca2+ release, IC50. The procedure:
GCaMP3-ML1 expression was induced in Tet-On HEK-GCaMP3-ML1 cells 20-24 h prior to experiments using […] doxycycline. GCaMP3-ML1 fluorescence was monitored at an excitation wavelength of 470 nm (F470) using an EasyRatio Pro system (PTI). Cells were bathed in Tyrode's solution containing 145 mM NaCl, 5 mM KCl, 2 mM CaCl2), 1 mM MgCl2, 10 mM Glucose, and 20 mM Hepes (pH 7.4). Lysosomal Ca^2+ release was measured in a zero Ca^2+ solution containing 145 mM NaCl, 5 mM KCl, 3 mM MgCl2, 10 mM glucose, 1 mM EGTA, and 20 mM HEPES (pH 7.4). Ca^2+ concentration in the nominally free Ca^2+ solution is estimated to be 1-10 μM. With 1 mM EGTA, the free Ca^2+ concentration is estimated to be <10 nM based on the Maxchelator software (http://maxchelator.stanford.edu/). Experiments were carried out 0.5 to 6 hrs after plating. ML1-mediated lysosomal Ca^2+ release was triggered by synthetic agonists ML-SA1, and inhibited by ML-S13 and aforementioned testing compounds.

[1] abbreviates: basal ML1 currents, isolated enlarged endolysosomes, read-out: inhibition of basal ML1 currents, IC50.

For orientation: IC50 means the midpoint of a concentration-inhibition curve.

Each structure is given as a SMILES string. Where two headings read alike, the source gives them in different places.

T1 sequence (Q9GZU1 whole entry): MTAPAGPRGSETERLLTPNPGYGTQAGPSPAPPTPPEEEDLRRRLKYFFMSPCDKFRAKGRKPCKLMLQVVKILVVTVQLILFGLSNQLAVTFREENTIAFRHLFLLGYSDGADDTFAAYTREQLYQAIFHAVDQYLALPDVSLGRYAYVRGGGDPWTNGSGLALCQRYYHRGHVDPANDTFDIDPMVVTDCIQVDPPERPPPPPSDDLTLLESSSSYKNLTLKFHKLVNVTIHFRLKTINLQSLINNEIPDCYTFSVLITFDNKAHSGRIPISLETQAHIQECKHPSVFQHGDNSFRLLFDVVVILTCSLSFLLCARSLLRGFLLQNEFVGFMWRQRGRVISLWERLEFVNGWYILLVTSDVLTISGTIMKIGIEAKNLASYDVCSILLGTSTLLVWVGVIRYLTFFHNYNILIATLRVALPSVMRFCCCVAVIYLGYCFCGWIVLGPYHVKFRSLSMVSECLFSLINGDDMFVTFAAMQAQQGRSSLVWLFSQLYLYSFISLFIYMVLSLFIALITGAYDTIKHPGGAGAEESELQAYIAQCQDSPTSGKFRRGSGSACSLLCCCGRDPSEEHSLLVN

As to `Cc1ccc(S(=O)(=O)N2c3cc(F)ccc3CCC2CCc2ccc(Cl)cc2F)cc1` (stereo not drawn) [Example B11, 2-(4-Chloro-2-fluorophenethyl)-7-fluoro-1-tosyl-1,2,3,4-tetrahydroquinoline], the “histamine-induced VAC formation” value is “significantly inhibited” with cultured parietal cells (at 0.5 μM) and “abolished” in the assay on cultured parietal cells (at 2 μM). Besides, the IC50 at ML1 channel (setting [1]) was below 100 nM; at ML1 channel (currents activated by ML1 agonist ML-SA1, read-out: inhibition of ML-SA1-activated ML1 currents, IC50), below 1000 nM.
Consider `Cc1ccc(S(=O)(=O)N2c3cc(F)ccc3CC[C@@H]2CCc2ccc(Cl)cc2F)cc1` [Example B11a], for which the IC50 on ML1 channel (setting [1]) is below 100 nM.
For `Cc1ccc(S(=O)(=O)N2c3cc(F)ccc3CC[C@H]2CCc2ccc(Cl)cc2F)cc1` [Example B11b], the values for the IC50 at ML1 and on ML1 channel (setting [1]) were below 1000 nM and below 100 nM, respectively. Moreover, the “histamine-induced VAC formation” value is “significantly inhibited” with cultured parietal cells (at 0.5 μM) and “abolished” with cultured parietal cells (at 2 μM).

The record behind these values is patent US20200352921A1, “ARYL-SULFONAMIDE AND ARYL-SULFONE DERIVATIVES AS TRPML MODULATORS” (CalyGene Biotechnolgy, Inc., priority 2017, published 2020).
